Laboratory results published in the NIST ThermoML archive (doi:10.1021/je060271a).
± gives the expanded uncertainty stated by the source.

Conditions: Liquid, Vibrating tube method

CCCCCCCC(=O)OCC(COC(=O)CCCCCCC)(COC(=O)CCCCCCC)COC(=O)CCCCCCC [pentaerythritol tetraoctanoate]
Conditions | mass density [kg/m3]
283.15 K, 29618 kPa | 986.1 ± 1.2
283.15 K, 29659 kPa | 986 ± 1.2
283.15 K, 29698 kPa | 986.2 ± 1.2
283.15 K, 29736 kPa | 986.1 ± 1.2
283.15 K, 29782 kPa | 986.2 ± 1.2
283.15 K, 29821 kPa | 986.2 ± 1.2
283.15 K, 29859 kPa | 986.3 ± 1.2
283.15 K, 29906 kPa | 986.3 ± 1.2
283.15 K, 29946 kPa | 986.3 ± 1.2
283.15 K, 29992 kPa | 986.4 ± 1.2
283.15 K, 30032 kPa | 986.4 ± 1.2
283.15 K, 30071 kPa | 986.3 ± 1.2
283.15 K, 30118 kPa | 986.4 ± 1.2
283.15 K, 30158 kPa | 986.4 ± 1.2
283.15 K, 30201 kPa | 986.4 ± 1.2
283.15 K, 30242 kPa | 986.5 ± 1.2
283.15 K, 30289 kPa | 986.4 ± 1.2
283.15 K, 30330 kPa | 986.5 ± 1.2
283.15 K, 30370 kPa | 986.4 ± 1.2
283.15 K, 30418 kPa | 986.5 ± 1.2
283.15 K, 30459 kPa | 986.5 ± 1.2
283.15 K, 30500 kPa | 986.6 ± 1.2
283.15 K, 30549 kPa | 986.6 ± 1.2
283.15 K, 30590 kPa | 986.6 ± 1.2
283.15 K, 30631 kPa | 986.6 ± 1.2
283.15 K, 30673 kPa | 986.6 ± 1.2
283.15 K, 30724 kPa | 986.6 ± 1.2
283.15 K, 30766 kPa | 986.7 ± 1.2
283.15 K, 30808 kPa | 986.8 ± 1.2
283.15 K, 30850 kPa | 986.6 ± 1.2
283.15 K, 30900 kPa | 986.7 ± 1.2
283.15 K, 30942 kPa | 986.8 ± 1.2
283.15 K, 30985 kPa | 986.9 ± 1.2
283.15 K, 31036 kPa | 986.8 ± 1.2
283.15 K, 31079 kPa | 986.8 ± 1.2
283.15 K, 31123 kPa | 986.8 ± 1.2
283.15 K, 31174 kPa | 986.8 ± 1.2
283.15 K, 31217 kPa | 986.9 ± 1.2
283.15 K, 31260 kPa | 986.9 ± 1.2
283.15 K, 31312 kPa | 987 ± 1.2
283.15 K, 31356 kPa | 987.1 ± 1.2
283.15 K, 31399 kPa | 987 ± 1.2
283.15 K, 31451 kPa | 987.1 ± 1.2
283.15 K, 31495 kPa | 987.1 ± 1.2
283.15 K, 31539 kPa | 987 ± 1.2
283.15 K, 31584 kPa | 987 ± 1.2
283.15 K, 31637 kPa | 987.1 ± 1.2
283.15 K, 31682 kPa | 987.2 ± 1.2
283.15 K, 31727 kPa | 987.1 ± 1.2
283.15 K, 31781 kPa | 987.2 ± 1.2
283.15 K, 31826 kPa | 987.2 ± 1.2
283.15 K, 31872 kPa | 987.1 ± 1.2
283.15 K, 31928 kPa | 987.2 ± 1.2
283.15 K, 31976 kPa | 987.3 ± 1.2
283.15 K, 32024 kPa | 987.3 ± 1.2
283.15 K, 32078 kPa | 987.3 ± 1.2
283.15 K, 32117 kPa | 987.3 ± 1.2
283.15 K, 32155 kPa | 987.4 ± 1.2
283.15 K, 32186 kPa | 987.4 ± 1.2
283.15 K, 32232 kPa | 987.5 ± 1.2
283.15 K, 32279 kPa | 987.3 ± 1.2
283.15 K, 32317 kPa | 987.5 ± 1.2
283.15 K, 32364 kPa | 987.6 ± 1.2
283.15 K, 32402 kPa | 987.5 ± 1.2
283.15 K, 32442 kPa | 987.6 ± 1.2
283.15 K, 32488 kPa | 987.5 ± 1.2
283.15 K, 32528 kPa | 987.5 ± 1.2
283.15 K, 32567 kPa | 987.6 ± 1.2
283.15 K, 32614 kPa | 987.6 ± 1.2
283.15 K, 32653 kPa | 987.6 ± 1.2
283.15 K, 32700 kPa | 987.7 ± 1.2
283.15 K, 32740 kPa | 987.6 ± 1.2
283.15 K, 32779 kPa | 987.7 ± 1.2
283.15 K, 32819 kPa | 987.7 ± 1.2
283.15 K, 32868 kPa | 987.8 ± 1.2
283.15 K, 32908 kPa | 987.7 ± 1.2
283.15 K, 32947 kPa | 987.7 ± 1.2
283.15 K, 32996 kPa | 987.9 ± 1.2
283.15 K, 33037 kPa | 987.8 ± 1.2
283.15 K, 33127 kPa | 987.8 ± 1.2
283.15 K, 33168 kPa | 987.9 ± 1.2
283.15 K, 33209 kPa | 987.9 ± 1.2
283.15 K, 33260 kPa | 987.8 ± 1.2
283.15 K, 33301 kPa | 987.9 ± 1.2
283.15 K, 33344 kPa | 988 ± 1.2
283.15 K, 33396 kPa | 988 ± 1.2
283.15 K, 33439 kPa | 988 ± 1.2
283.15 K, 33492 kPa | 988.1 ± 1.2
283.15 K, 33538 kPa | 988 ± 1.2
283.15 K, 33585 kPa | 988.1 ± 1.2
283.15 K, 33636 kPa | 988.2 ± 1.2
283.15 K, 33684 kPa | 988.1 ± 1.2
283.15 K, 33728 kPa | 988.1 ± 1.2
283.15 K, 33754 kPa | 988.1 ± 1.2
283.15 K, 33776 kPa | 988.2 ± 1.2
283.15 K, 33797 kPa | 988.2 ± 1.2
283.15 K, 33823 kPa | 988.2 ± 1.2
283.15 K, 33845 kPa | 988.1 ± 1.2
283.15 K, 33867 kPa | 988.2 ± 1.2
283.15 K, 33889 kPa | 988.2 ± 1.2
283.15 K, 33915 kPa | 988.4 ± 1.2
283.15 K, 33937 kPa | 988.3 ± 1.2
283.15 K, 33959 kPa | 988.3 ± 1.2
283.15 K, 33986 kPa | 988.2 ± 1.2
283.15 K, 34008 kPa | 988.3 ± 1.2
283.15 K, 34126 kPa | 988.4 ± 1.2
283.15 K, 34154 kPa | 988.4 ± 1.2
283.15 K, 34177 kPa | 988.3 ± 1.2
283.15 K, 34205 kPa | 988.4 ± 1.2
283.15 K, 34229 kPa | 988.5 ± 1.2
283.15 K, 34255 kPa | 988.4 ± 1.2
283.15 K, 34282 kPa | 988.4 ± 1.2
283.15 K, 34314 kPa | 988.4 ± 1.2
283.15 K, 34342 kPa | 988.4 ± 1.2
283.15 K, 34371 kPa | 988.6 ± 1.2
283.15 K, 34402 kPa | 988.5 ± 1.2
283.15 K, 34407 kPa | 988.5 ± 1.2
283.15 K, 34408 kPa | 988.5 ± 1.2
283.15 K, 34409 kPa | 988.5 ± 1.2
283.15 K, 34410 kPa | 988.5 ± 1.2
283.16 K, 5633.2 kPa | 973.4 ± 1.2
283.16 K, 22751 kPa | 982.8 ± 1.2
283.16 K, 22773 kPa | 982.7 ± 1.2
283.16 K, 22795 kPa | 982.6 ± 1.2
283.16 K, 33086 kPa | 987.8 ± 1.2
283.16 K, 33707 kPa | 988.2 ± 1.2
283.16 K, 34030 kPa | 988.3 ± 1.2
283.16 K, 34053 kPa | 988.3 ± 1.2
283.16 K, 34080 kPa | 988.4 ± 1.2
283.16 K, 34103 kPa | 988.3 ± 1.2
303.14 K, 3768.3 kPa | 957.8 ± 1.2
303.14 K, 3783 kPa | 957.7 ± 1.2
303.14 K, 3800.7 kPa | 957.8 ± 1.2
303.14 K, 3818.7 kPa | 957.7 ± 1.2
303.14 K, 3833.9 kPa | 957.8 ± 1.2
303.14 K, 3852.1 kPa | 957.7 ± 1.2
303.14 K, 3867.4 kPa | 957.7 ± 1.2
303.14 K, 3885.9 kPa | 957.9 ± 1.2
303.14 K, 3920.2 kPa | 957.8 ± 1.2
303.14 K, 3936.3 kPa | 957.8 ± 1.2
303.14 K, 3956 kPa | 957.8 ± 1.2
303.14 K, 3973 kPa | 957.8 ± 1.2
303.14 K, 3988.9 kPa | 958 ± 1.2
303.14 K, 4008.8 kPa | 957.9 ± 1.2
303.14 K, 4024.9 kPa | 957.8 ± 1.2
303.14 K, 4044.7 kPa | 957.9 ± 1.2
303.14 K, 4060.9 kPa | 958 ± 1.2
303.14 K, 4081.2 kPa | 957.9 ± 1.2
